Measurements as given in article PMC7226045, “Ensartinib (X-396) Effectively Modulates Pharmacokinetic Resistance Mediated by ABCB1 and ABCG2 Drug Efflux Transporters and CYP3A4 Biotransformation Enzyme” (Cancers, 2020).

Legend:
CYP2C19 = target: T1, CYP2C19 (Homo sapiens, UniProt P33261); assay: Vivid CYP screening kit, recombinant CYP2C19; type: biochemical; details: recombinant enzyme, 15 min incubation, absolute IC50; read-out: CYP2C19 inhibition IC50
T1 construct: purchased Thermo Fisher Scientific; host or cells: insect microsomal fractions
Method: CYP inhibitory assay was performed as described previously. Experiments were performed with commercial Vivid CYP screening kits containing insect microsomal fractions enriched with a specific human CYP isoform, human CYP reductase, and in some cases, human cytochrome b5. The potential inhibitory activity of ensartinib toward CYP1A2, CYP2B6, CYP2C8, CYP2C9, CYP2C19, CYP2D6, CYP3A4, and CYP3A5 (i.e., all CYP isoforms that drug regulatory authorities recommend for testing of inhibition by new molecular entities) was then examined. Experiments were performed using a kinetic mode in black 96-well plates according to the manufacturer´s instructions. Briefly, 5-point serial dilutions of ensartinib or the model inhibitor recommended by the manufacturer in buffer were transferred into the wells, then a master mix consisting of a CYP isoenzyme with an NADPH regeneration system in buffer was added. After a 10 min pre-incubation, the reaction was initiated by adding a mixture of NADP^+ and the appropriate Vivid substrate, after which fluorescence was measured at 1 min intervals for 60 min using an Infinite M200 Pro microplate reader (Tecan, Männedorf, Switzerland). The enzyme concentration and incubation interval used for data evaluation (15 min) placed the systems within the linear regions of the appropriate reaction velocity curves. […]

[1] = MTT proliferation / drug combination assay, MDCKII-ABCB1; details: dog, MDCKII-ABCB1 cells
Method: MTT proliferation assay was performed as described previously. Cells were seeded on a 96-well culture plate at densities (in units of cells/well) of 1.3 × 10^4 for MDCKII-par, MDCKII-ABCB1, MDCKII-ABCG2, and MDCKII-ABCC1; 1.2 × 10^4 for A431-par, A431-ABCB1, A431-ABCG2 and A431-ABCC1; 1.2 × 10^4 for NCI-H1299; 2.0 × 10^4 for Caco-2; 5.0 × 10^4 for LS174T; and 6.0 × 10^4 for HepG2-CYP3A4 and HepG2-EV. After seeding, the cells were cultured for 24 h, then the media was removed and the cells were treated with serial dilutions of a drug or drug combination for 48 h. Vehicles containing media and 40% DMSO in media served as 100% and 0% viability controls, respectively. Upon completion of the 48 h period, the cells were washed once with 1× PBS, the media was replaced with an MTT solution in Opti-MEM (1 mg/mL), and the cells were incubated under standard conditions for 60 min. MTT solution was carefully removed and the resulting formazan crystals were immediately solubilized in DMSO. The cells were then shaken gently for 10 min, after which absorbance of their lysate was measured at 570 nm and 690 nm using a microplate reader (Infinite M200, Tecan, Salzburg, Austria); background values obtained at 690 nm were subtracted from the measurements obtained at 570 nm. This method was used to assess the effect of ABC transporters on sensitivity to ensartinib, in drug combination assays, and to identify drug concentrations appropriate for use in induction studies.
Experiments focusing on the modulation of ABC transporter-mediated resistance were performed as described previously. The parent MDCKII and HL60 cells and their ABCB1-, ABCG2-, and ABCC1-overexpressing counterparts were seeded at the densities specified above onto 96-well culture plates and cultured for 24 h. The medium was subsequently replaced with serial dilutions of ensartinib alone or with various concentrations of a model MDR-susceptible cytostatic agent (daunorubicin or mitoxantrone) with or without 10 µM ensartinib. After 48 h incubation, the cells’ viability was determined as described above. In addition to performing IC50-shift analyses, the viability measurements were converted to FA (fraction of cells affected) values and the effects of drug combinations were quantified using the Chou-Talalay combination index (CI) method as implemented in CompuSyn 3.0.1 (ComboSyn Inc., Paramus, NJ, USA). The effects of concomitantly administered drugs were classified as synergistic (CI < 0.9), additive (0.9 < CI < 1.1), or antagonistic (CI > 1.1) based on the computed CI values.

[2] = MDCKII monolayer transport assay, MDCKII-par; type: in vitro ADME, canine; details: dog, MDCK, 1 µM ensartinib, read-out: transport ratio (r), BA/AB
Method: Transport assays were performed on microporous polycarbonate membrane filters (3 µm pore size, 24 mm diameter, Transwell 3414; Costar, Corning, NY, USA) using MDCKII parental as well as ABCB1-, ABCG2-, and ABCC1-overexpressing MDCKII cells. The cells were seeded at a density of 1.5 × 10^6 cells per insert and cultured to full confluence for 7 days with media exchanges on the second and fourth days. Before the start of the transport experiments, inserts were washed with 1 × PBS on both the apical and basal sides. The cells were then preincubated in Opti-MEM with or without model inhibitors (1 µM LY335979, 1 µM Ko143, or 25 µM MK-571). […] Ensartinib levels in samples were measured by UHPLC-MS/MS (see below). […]
Samples from the monolayer transport assays (10 µL) were mixed with 100 µL of acetonitrile and 100 µL of methanol, vortexed for 15 min, and centrifuged at 14,500 rpm for 3 min. […] The MS source parameters were set to the following: drying gas, 320 °C, flow rate 10 l/min; sheath gas, 400 °C at 12 l/min; nebulizer pressure 25 psi; capillary voltage 4000 V; nozzle voltage 0 V. Transitions of [M+H]^+ ions were detected using a dwell time of 150 ms, a cell acceleration of 4 V, and fragmentor voltages of 137 V for 547→357, 257 and 120 transitions (corresponding to collision energies of 16, 32, and 56 V).

T1 sequence (P33261 whole entry): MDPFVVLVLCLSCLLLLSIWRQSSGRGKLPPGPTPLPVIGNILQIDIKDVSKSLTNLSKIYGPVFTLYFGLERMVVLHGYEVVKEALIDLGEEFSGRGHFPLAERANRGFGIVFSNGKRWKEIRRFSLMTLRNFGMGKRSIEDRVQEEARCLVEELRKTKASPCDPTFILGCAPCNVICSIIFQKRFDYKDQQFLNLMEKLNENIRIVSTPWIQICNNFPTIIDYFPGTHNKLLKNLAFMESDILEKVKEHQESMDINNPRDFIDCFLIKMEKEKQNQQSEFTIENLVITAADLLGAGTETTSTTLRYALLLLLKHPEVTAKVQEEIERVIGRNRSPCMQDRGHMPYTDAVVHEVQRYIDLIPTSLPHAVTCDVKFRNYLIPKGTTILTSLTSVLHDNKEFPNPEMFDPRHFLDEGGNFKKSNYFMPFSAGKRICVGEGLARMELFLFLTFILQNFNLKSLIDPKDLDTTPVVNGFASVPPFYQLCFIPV

C[C@@H]1CN(C(=O)c2ccc(NC(=O)c3cc(O[C@H](C)c4c(Cl)ccc(F)c4Cl)c(N)nn3)cc2)C[C@H](C)N1 [ensartinib, Ensartinib]
IC50 (CYP2C19): 14.6 µM
IC50 at 48 h [1]: 23.9 µM
efflux ratio at 4 h, 1 µM [2]: 1.01
